Assay results as given in article PMC9794587 (Frontiers in Pharmacology, 2022).
Read-outs that look alike come from different tables or passages of the source. Where no end group is shown, it is not given here.

Experiments:
[1] = rat feces collected from 0 to 72 h after administration; details: SD rats, up to 72 h
[2] = rat plasma collected after a single IM injection of [3H]BPC157; details: SD rats, up to 24 h
[3] = rat bile collected from 0 to 72 h after administration (BDC rats); details: SD rats, up to 72 h
gastric juice = details: cited from earlier work
[4] = rat urine collected from 0 to 8 h and from 8 to 72 h after administration; details: SD rats, up to 72 h
[5] = Pharmacokinetics of BPC157 in beagle dogs after intravenous and intramuscular administration (plasma)
[6] = dog, in vivo, im, t1/2
[7] = Pharmacokinetics of BPC157 in SD rats after intravenous and intramuscular administration (plasma, LC-MS/MS); details: for bioavailability: in vivo
[8] = can be stored at room temperature; ref Sikiric et al., 2018; cited from earlier work
Source text: Body-protective compound (BPC) 157 is a peptide isolated from human gastric juice ([Sikiric et al., 1993]). BPC157 comprises 15 amino acids ([…]) and has a molecular weight of 1419 Da. […] BPC157 exerts a significant protective effect on various tissues and organs, such as th ...

[9] = rat, in vivo, im, t1/2
[10] = mice, rats, rabbits, or dogs; ref Xu et al., 2020; cited from earlier work
Source text: Previously, we established a solid-phase synthesis process for BPC157 ([Xue et al., 2004]) and verified its biological activity in rat gastric ulcer models and various skin wound models ([Huang et al., 2015]). […] For evaluating its future clinical use as a therapeutic drug and follow-up clinical trials, the present study was undertaken to evaluate the pharmacokinetics, tissue distribution, metabolis ...

in vivo [11] = details: both, Sprague-Dawley, rat, iv, t1/2
in vivo [12] = details: both, beagle, dog, t1/2
[13] = Radiometabolite profiling of [3H]BPC157 in rat plasma, urine, bile and feces (HPLC with radioactive detector, LC-MS/MS); assay type: in vivo, SD rats; details: for proportion of the bile sample radioactivity: single IM 100 µg/300 μCi/kg [3H]BPC157, mixed bile samples 0 to 72 h; for proportion of the total fecal radioactivity: single IM 100 µg/300 μCi/kg [3H]BPC157, feces 0 to 72 h; for proportion of the total radioactivity in urine: single IM 100 µg/300 μCi/kg [3H]BPC157, mixed urine samples 8 to 72 h
Description: Thirty intact SD rats, six JVC rats, and six BDC rats (half male and half female subjects) were injected intramuscularly with 100 µg/300 μCi/kg of [3H]BPC157. Whole blood and plasma samples of six JVC rats were collected at 0.05, 0.167, 0.5, 1, 2, 4, 8, 24, 48, and 72 h after administration (three males and three females at each time point) for the examination of radio pharmacokinetics of total plasma. Six intact SD rats were used for urinary, fecal, and biliary excretion studies. Urine and fecal samples were collected from each rat at 0–8, 8–24, 24–48, and 48–72 h. Animal carcasses were collected 72 h after administration. Bile excretion was studied in six SD rats with BDC. Bile, urine, and feces were collected 0–72 h after administration. Tissue distribution of BPC was studied in 24 intact SD rats. The rats were euthanized, and tissue samples (brain, heart, kidneys, liver, spleen, lung, stomach, intestine, muscle, grease, ovaries, womb, testicles, and thymus) were collected at 3 min, 10 min, 1 h, and 24 h after administration (three males and three females at each time point). Male SD rats were administered a single IM injection of blank solvent (excipient), and biological samples, including whole blood, plasma, urine, feces, and tissues, were collected for background control. The radioactivity of the plasma, tissue, bile, urinary, and fecal samples was analyzed using a liquid scintillation counter.
Plasma, bile, urine, and fecal samples of intact SD rats or BDC rats after a single administration of [3H]BPC157 were analyzed by HPLC combined with a low-energy radionuclide detection technique to obtain the radiometabolite profiles of [3H]BPC157. The structures of the main metabolites of [3H]BPC157 in rat plasma, bile, urine, and feces were analyzed and identified using LC-MS/MS and standard molecular weight comparison.

[14] = both, beagle, dog, plasma, im, 6 μg/kg
[15] = both, beagle, dog, plasma, im, 30 μg/kg
[16] = both, beagle, dog, plasma, im, 150 μg/kg
[17] = both, beagle, dog, plasma, iv, 6 μg/kg
[18] = SD rats, single intravenous 20 μg/kg, plasma, LC-MS/MS, mean, n = 6
[19] = both, Sprague-Dawley, rat, plasma, im, 20 μg/kg
[20] = both, Sprague-Dawley, rat, plasma, im, 100 μg/kg
[21] = both, Sprague-Dawley, rat, plasma, im, 500 μg/kg
[22] = both, Sprague-Dawley, rat, plasma, iv, 20 μg/kg

In the case of GEPPPPGKPADDAGLV, the fragment found [1] is reported as “[^3H]proline (M1)”, the fragment found [2] is reported as “M1(Proline) and M2 and M3 and M4 and M5 and M6” and the fragment found [3] is reported as “[^3H]proline (M1), major”. For the same molecule, the not cleaved (gastric juice) was “resistant to hydrolysis, enzyme digestion, and even gastric juice” and the fragment found [4] was “[^3H]proline (M1), major, 0 to 8 h”.
In the case of `CC(C)C[C@H](NC(=O)CNC(=O)[C@H](C)NC(=O)[C@H](CC(=O)O)NC(=O)[C@H](CC(=O)O)NC(=O)[C@H](C)NC(=O)[C@@H]1CCCN1C(=O)[C@H](CCCCN)NC(=O)CNC(=O)[C@@H]1CCCN1C(=O)[C@@H]1CCCN1C(=O)[C@@H]1CCCN1C(=O)[C@H](CCC(=O)O)NC(=O)CN)C(=O)N[C@H](C(=O)O)C(C)C` [BPC157, Gly-Glu-Pro-Pro-Pro-Pro-Gly-Lys-Pro-Ala-Asp-Asp-Ala-Gly-Leu-Val], the “dose proportionality (AUC0–t and Cmax vs dose)” value ([5]; beagle dogs, IM 6, 30, 150 μg/kg, linear regression) is reported as “linear pharmacokinetic characteristics”, the “elimination half-life of the prototype drug” value ([5]; beagle dogs, IV and IM, all doses, plasma) is reported as “less than 30 min” and the “detection of prototype drug in plasma 4 h after administration” value ([5]; beagle dogs, plasma, 4 h after administration) is reported as “could not be detected”. The Cssav ([5]; beagle dogs, repeated intramuscular 30 μg/kg for seven consecutive days, Cssav = AUC0–t/τ, mean ± SD, n = 6) was 0.108 ± 0.0177 ng/mL, the Cssmin ([5]; beagle dogs, repeated intramuscular 30 μg/kg for seven consecutive days, Cssmin = (C-48h + C-24h + C0h)/3, mean ± SD, n = 6) was 0.00285 ± 0.00698 ng/mL and the “time for plasma BPC157 to reach its peak” value ([5]; beagles, IM 6, 30, and 150 μg/kg) was no more than 9 min. The AUC(0-inf) [5, 14] was 0.5 ng·h/mL, the AUC(0-t) [5, 14] was 0.483 ng·h/mL and the Cmax [5, 14] was 1.05 ± 0.429 ng/mL. For the same molecule, the MRT [5, 14] was 25.8 min, the Tmax [5, 14] was 6.33 min and the bioavailability [5, 14] was 45.3 ± 24.9%. It also gave an AUC(0-inf) [5, 15] of 2.73 ng·h/mL, an AUC(0-t) [5, 15] of 2.67 ng·h/mL and a Cmax [5, 15] of 3.3 ± 0.508 ng/mL. The MRT [5, 15] was 37 min, the Tmax [5, 15] was 8.67 min and the bioavailability [5, 15] was 47.6 ± 18.1%. For the same molecule, the AUC(0-inf) [5, 16] was 13.8 ng·h/mL, the AUC(0-t) [5, 16] was 13.8 ng·h/mL and the Cmax [5, 16] was 26.1 ± 7.82 ng/mL. For the same molecule, the MRT [5, 16] was 31.4 min, the Tmax [5, 16] was 8.17 min and the bioavailability [5, 16] was 50.6 ± 27%. For the same molecule, the AUC(0-inf) [5, 17] was 1.28 ng·h/mL, the MRT [5, 17] was 2.49 min and the clearance [5, 17] was 5.45 ± 2.41 L/h/kg. The Tmax ([5]; dog, in vivo, im) was 10.5 min, the Vd ([5]; dog, in vivo, iv, 6 ug/kg) was 0.243 ± 0.162 L/kg and the half-life [6] was 19.6 ± 3.72 min. The Cssav ([7]; SD rats, repeat intramuscular 100 μg/kg for seven consecutive days, Cssav = AUC0–t/τ, τ is the interval of administration) was 0.290 ng/mL, the Cssmin ([7]; SD rats, repeat intramuscular 100 μg/kg for seven consecutive days, Cssmin=(C-48h + C-24h + C0h)/3) was 0 µg/mL and the Tmax ([7]; SD rats, repeat intramuscular 100 μg/kg once a day for seven consecutive days, after last dose, plasma, LC-MS/MS, mean, n = 6) was 3.00 min. For the same molecule, the Tmax ([7]; SD rats, single intramuscular 20 μg/kg, plasma, LC-MS/MS, mean, n = 6) was 3 min, the Tmax ([7]; SD rats, single intramuscular 100 μg/kg, plasma, LC-MS/MS, mean, n = 6) was 3 min and the Tmax ([7]; SD rats, single intramuscular 500 μg/kg, plasma, LC-MS/MS, mean, n = 6) was 3 min. The MRT [7, 18] was 0.727 min, the Vss [7, 18] was 0.0364 L/kg and the AUC(0-inf) [7, 19] was 1.25 ng·h/mL. It also gave an AUC(0-t) [7, 19] of 1.25 ng·h/mL, a Cmax [7, 19] of 12.3 ng/mL and an MRT [7, 19] of 7.27 min. The Tmax [7, 19] was 3 min, the AUC(0-inf) [7, 20] was 4.83 ng·h/mL and the AUC(0-t) [7, 20] was 4.82 ng·h/mL. The Cmax [7, 20] was 48.9 ng/mL, the MRT [7, 20] was 9.61 min and the Tmax [7, 20] was 3 min. For the same molecule, the AUC(0-inf) [7, 21] was 32.2 ng·h/mL, the AUC(0-t) [7, 21] was 32.2 ng·h/mL and the Cmax [7, 21] was 141 ng/mL. It also gave an MRT [7, 21] of 12.8 min, a Tmax [7, 21] of 3 min and an AUC(0-inf) [7, 22] of 6.67 ng·h/mL. It also gave an AUC(0-t) [7, 22] of 6.65 ng·h/mL, a clearance [7, 22] of 3.01 L/h/kg and a bioavailability ([7]; rat, im, 20 ug/kg) of 18.8%. For the same molecule, the bioavailability ([7]; rat, im, 100 ug/kg) was 14.5%, the bioavailability ([7]; rat, im, 500 ug/kg) was 19.4% and the “dose proportionality (AUC0–t and Cmax vs dose)” value ([7]; rats, IM 20, 100, 500 μg/kg, linear regression) was “linear pharmacokinetic characteristics”. The “time for plasma BPC157 to reach its peak” value ([7]; rats, IM 20, 100, and 500 μg/kg) was no more than 9 min, the “elimination half-life of the prototype drug” value ([7]; rats, IV and IM, all doses, plasma) was “less than 30 min” and the “detection of prototype drug in plasma 4 h after administration” value ([7]; rats, plasma, 4 h after administration) was “could not be detected”. The stability [8] was “resistant to hydrolysis, enzyme digestion, and even gastric juice”, the half-life [9] was 18.5 min and the “tolerability, serious toxic effects” value [10] was “well tolerated and did not demonstrate any serious toxic effects”. The half-life (in vivo [11]) was 15.2 min, the half-life (in vivo [12]; im) was 20 ± 5.53 min and the half-life (in vivo [12]; iv) was 5.27 ± 2.25 min.
With `[3H]O[3H]` [tritium water] the “proportion of the bile sample radioactivity” value ([13]; female BDC rats) was 91.2%, the “proportion of the total fecal radioactivity” value ([13]; female rats) was 30.1% and the “proportion of the total radioactivity in urine” value ([13]; female rats) was 69.5%. For the same molecule, the “proportion of the bile sample radioactivity” value ([13]; male BDC rats) was 91.0%, the “proportion of the total fecal radioactivity” value ([13]; male rats) was 29.3% and the “proportion of the total radioactivity in urine” value ([13]; male rats) was 75.3%.
